# Assay results: patent US20100247538A1, “IL-18 and Protein Kinase R Inhibition for the Treatment of COPD” (Yale University, priority 2007, published 2010)
# “Also recorded” adds a separate entry of the source.
# How the values were obtained:
# [1] = tested on: murine lung; experiment: Alveolar remodeling / emphysema (mean chord length, lung morphometry); conditions: for tissue / alveolar remodeling: control or CS-exposed animals
# [2] = tested on: murine lung; experiment: BAL inflammation (BAL cell recovery) after PAMP administration in mice breathing room air or exposed to cigarette smoke; format: in vivo; conditions: for BAL inflammation: interaction with cigarette smoke (CS-exposed vs non-CS animals): CS exposure 2 weeks before and during dosing; for number of cells recovered per ml of BAL fluid: control (non-CS) animals, dose series
# Experimental: During the first week they received a half cigarette, twice a day, to allow for acclimation. During the remainder of the exposure they received three cigarettes per day (one cigarette per session/three sessions per day).
# (§1) CS exposure was continued during this interval.
# Mice were sacrificed using intraperitoneal ketamine/xylazine injection and the trachea was cannulated and perfused with two 0.9 ml aliquots of cold saline. The cellular contents and BAL fluid were separated by centrifugation and the BAL fluid was stored in aliquots at −80° C.
# [3] = tested on: IL-12/23 p40; experiment: BAL IL-12/IL-23p40 ELISA; format: in vivo, mice; conditions: after second dose
# Experimental: as §1
# (§2) The levels of BAL IL-18 (MBL, Japan), IL-12/IL-23p40 and IFN-γ (R&D Systems) were determined using commercial ELISA kits as per the manufacturer's instructions.
# [4] = tested on: IL-18; experiment: BAL IL-18 ELISA; format: in vivo, mice
# Experimental: Mice were euthanized, the trachea was isolated by blunt dissection, and tubing was secured in the airway. Three volumes of 0.6 ml of PBS were then instilled and gently aspirated and pooled. Each BAL fluid sample was centrifuged, and the supernatants were stored in −70° C. until used. Lung lysates were also prepared. The levels of IL-18 were determined using a commercial ELISA kit (R&D Systems) as per the manufacturer's instructions.
# as §1, §2
# [5] = tested on: IFN-γ; experiment: BAL IFN-γ ELISA; format: in vivo, mice; conditions: for IFN-γ level: after second dose
# Experimental: as §1, §2
# [6] = tested on: PKR; experiment: Immunoblot of phospho-PKR in whole lung lysates; format: in vivo, mice
# Experimental: as §1
# Whole lung lysates were prepared and the total protein content of each was measured using the DC protein assay reagents (Bio-Rad Inc.). Equal amounts of sample proteins were fractionated on 4-15% SDS-PAGE gels under reducing conditions and transferred to polyvinylidene difluoride membranes. The membranes were then incubated in blocking buffer (5% w/v nonfat dry milk in TBS/0.05% Tween) for 1 hour at room temperature. The membranes were then incubated with primary antibodies overnight at 4° C., washed three times in TBS/0.05% Tween and incubated for 2 h at room temperature with appropriate secondary antibodies. Immunoreactive signal was detected using a chemiluminescent procedure (ECL Western blotting detection system; Amersham Life Science) according to the manufacturer's instructions.
# [7] = tested on: murine lung; experiment: TUNEL evaluation of lung cell apoptosis; format: in vivo, mice
# Experimental: End labeling of exposed 3′-OH ends of DNA fragments in paraffin-embedded tissue was undertaken with the TUNEL in situ cell death detection kit AP (Roche Diagnostics) using the instructions provided by the manufacturer. Staining specificity was assessed by comparing the signal that was seen when terminal transferase was included and excluded from the reaction. After staining, a minimum of 20 fields of alveoli were randomly chosen, and 500 nuclei were counted per lung. The labeled cells were expressed as a percentage of total nuclei.
# as §1
# End labeling of exposed 3′-OH ends of DNA fragments in paraffin embedded tissue was undertaken with the TUNEL in situ cell death detection kit AP (Roche Diagnostics, Indianapolis, Ind.) using the instructions provided by the manufacturer. Staining specificity was assessed by comparing the signal that was seen when terminal transferase was included and excluded from the reaction. After staining, a minimum of 10 fields of alveoli was randomly chosen and 300 nuclei of structural cells were counted per lung. The labeled cells were expressed as a percentage of total nuclei.
# [8] = tested on: IL-18, IL-12/23 p40 and Type I and Type II IFNs; experiment: Production of IL-18, IL-12/23 p40 and Type I and Type II IFNs in BAL (stated jointly); format: in vivo, mice; conditions: versus vehicle controls
compound,measurement,setting,value
"CCNCc1nc2c(N)nc3ccccc3c2n1CC(C)(C)O [GDQ, gardiquimod]",tissue / alveolar remodeling,[1],no effect; also recorded: did not have similar effects
same,BAL inflammation: interaction with cigarette smoke (CS-exposed vs non-CS animals),[2],not significantl
same,BAL inflammation,"[2]; control animals, 5 μg doses",no effect
"CC(C)Cn1cnc2c(N)nc3ccccc3c21 [IMQ, imiquimod]",tissue / alveolar remodeling,[1],did not have similar effects
lipopoly-saccharide [LPS],tissue / alveolar remodeling,[1],no tissue remodeling was observed; also recorded: did not have similar effects
same,BAL inflammation: interaction with cigarette smoke (CS-exposed vs non-CS animals),[2],not a significant difference
same,number of cells recovered per ml of BAL fluid,[2],dose dependent
poly(I:C),morphometrically determined alveolar chord length,[1]; 4 doses in CS-exposed mice,significant increases
same,increase in alveolar size,[1]; 4 doses in RA-exposed mice,did not achieve statistical significance
same,dose at which CS interaction on alveolar/airway remodeling could be appreciated,[1]; CS-exposed mice,≥ 15 µg
same,mean chord length,[1]; IL-18Rα−/− and IFN-γ−/− animals exposed to CS,about 70 microns
same,mean chord length,[1]; PKR (null) animals exposed to CS,about 70 microns
same,mean chord length,[1]; PKR+/+ animals exposed to CS,about 85 microns
same,mean chord length,"[1]; PKR+/+ animals, no CS",about 65 microns
same,mean chord length,"[1]; PKR−/− animals, no CS",~62 microns
same,mean chord length,"[1]; administered and exposed to CS, controls about 55 microns",about 90 microns
same,mean chord length,"[1]; wild-type, IL-18Rα−/− and IFN-γ−/− animals, no CS",about 60 microns
same,IL-12/23 level,"[3]; CS animals, relative to non-CS",about twice that
same,IL-12/23 level,[3]; non-CS animals,about 3000 pg/ml
same,IL-18 level,"[4]; CS animals, second dose",about 100 pg/ml
same,IL-18 level,"[4]; both CS and non-CS animals, by week 4",90 to 100 pg/mL
same,IL-18 level,"[4]; non-CS animals, second dose",about 20 pg/ml
same,IFN-γ level,[5]; CS animals,about 90 pg/ml
same,IFN-γ expression,"[5]; IL-18Rα−/− animals, CS",about 35 pg/ml
same,IFN-γ level,[5]; control animals,about 10 pg/ml
same,IFN-γ expression,"[5]; wild-type animals, CS",about 110 pg/ml
same,IFN-γ expression,"[5]; wild-type animals, no CS",about 35 pg/ml
same,dose at which enhanced PKR activation was observed,[6]; CS-exposed mice,≥ 15 µg/mL
same,phospho-PKR expression,"[6]; wild-type animals, given alone",modestly up-regulated
same,phospho-PKR expression / PKR activation,"[6]; wild-type animals, with CS exposure",further increase; also recorded: greatly enhanced
same,TUNEL score,"[7]; IL-18Rα+/+, IFN-γ+/+, PKR+/+ animals, CS",about 12%
same,TUNEL score,"[7]; IL-18Rα+/+, IFN-γ+/+, PKR+/+ animals, room air",about 8%
same,TUNEL score,"[7]; IL-18Rα−/−, IFN-γ−/− and PKR−/− animals, CS",about 9%
same,TUNEL value,"[7]; IL-18Rα−/−, IFN-γ−/− and PKR−/− animals, room air",about 6.5%
same,TUNEL score,[7]; combined with CS,about 17
same,TUNEL score,[7]; given alone (no CS),about 8
same,BAL inflammation: interaction with cigarette smoke (CS-exposed vs non-CS animals),[2],significantly exacerbated; also recorded: synergistic
same,dose giving significant interaction with CS on inflammation,[2]; CS-exposed mice,≥ 15 µg
same,number of cells recovered per ml of BAL fluid,[2],dose dependent
same,"stimulation of IL-18, IL-12/23 p40 and Type I and Type II IFNs",[8],potent stimulator
